Measured values from patent US20210069286A1, “COMPOSITIONS AND METHODS FOR TREATING OR PREVENTING HYPERGLYCEMIA, INSULIN RESISTANCE, AND […] DAMAGE” (9 Meters Biopharma, Inc., priority 2018, published 2021).
No end group written: not given here.

Legend:
tight junction = test: activity as tight junction regulators; settings: for activity as tight junction regulators: fragment alone
Excerpt: See US 2016/0022760, which is hereby incorporated by reference in its entirety. […] It is believed that an aminopeptidase located within the brush borders of the lumen surface may create larazotide-derived fragments, including fragments missing N-terminal glycine residues.

[1] = test system: intestinal disease symptoms; settings: clinical trials, cited from earlier work

Substance	activity as tight junction regulators (tight junction)	activity as tight junction regulator (tight junction; fragments GVLVQPG and VLVQPG mixed with full length larazotide)	activity at reducing intestinal disease symptoms ([1]; higher doses (e.g., 1 mg and 2 mg doses))	benefit at reducing intestinal disease symptoms ([1]; lower doses (e.g., 0.5 mg dose))
VLVQPG [larazotide-derived fragment missing N-terminal glycine residues]	largely inactive	–	–	–
GGVLVQPG [Larazotide]	–	completely abolished	attenuation of activity, or no activity at all	benefit
GVLVQPG [larazotide-derived fragment missing N-terminal glycine residue]	largely inactive	–	–	–
